Structures can show the parent of a compound that is named as a salt.
Legend:
[1] = Encapsulation of mRNA nanoparticles with lipid amines using Ribogreen assay; assay type: physicochemical
How it was run: (§1)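 DLS gave size and PDI, and Ribogreen gave encapsulation, for luciferase- or CFTR-mRNA nanoparticles (N:P 4.93). Particles came from IL1/DSPC/cholesterol/PEG-DMG-2K mixed at pH 4, mRNA-loaded, neutralized with TRIS pH 8.12, and then treated with lipid amine SA50 in pH 7.5 buffer.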

HeLa cells [2] = test: Luciferase Protein Expression Assay in HeLa Cells; assay type: cell-based, Human; conditions: LNPs encapsulating Luciferase mRNA, 25 ng per well, N=4 wells; 5 h serum-free then 24 h; ONE-Glo
How it was run: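 Luminescence output, average RLU across N=4 wells, was measured with ONE-Glo after cell lysis. Before that, HeLa cells were exposed to 25 ng/well luciferase-mRNA nanoparticles (PBS control) for 5 h serum-free, then cultured overnight (24 h) in complete MEM.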

[3] = Diameter and PDI from DLS measurements of mRNA nanoparticles with lipid amines; assay type: physicochemical
How it was run: as §1

HeLa cells [4] = test: CFTR Protein Expression Assay in HeLa Cells; assay type: cell-based, Human; conditions: LNPs encapsulating CFTR mRNA, N=4 wells; 5 h serum-free then 24 h; immunofluorescence vs PBS control
How it was run: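 Readout is fold-change in per-cell CFTR immunofluorescence intensity (488 nm, confocal imaging) relative to PBS-treated cells, from 4 replicate wells. LNPs encapsulating CFTR mRNA were applied serum-free for 5 h, followed by 24 h in complete medium before PFA fixation.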

[5] = CFTR mRNA nanoparticle with lipid amine
[6] = Luciferase mRNA nanoparticle modified with lipid amine

| SMILES | % Encapsulation (Ribogreen) [1, 5] [%] | % Encapsulation (Ribogreen) [1, 6] [%] | Average Relative Light Units ± Standard Deviation (HeLa cells [2]) [Relative Light Units] | Diameter (nm) [3, 5] [nm] | PDI [3, 5] | Diameter (nm) [3, 6] [nm] | PDI [3, 6] | Average fold-change in CFTR signal intensity per cell compared to buffer control ± standard deviation (HeLa cells [4]) [fold-change] |
| --- | --- | --- | --- | --- | --- | --- | --- | --- |
| CC(C)CCC[C@@H](C)[C@H]1CC[C@H]2[C@@H]3CC=C4C[C@@H](OC(=O)CCC(=O)N(CCCC(C)(C)N)CCC(C)(C)N)CC[C@]4(C)[C@H]3CC[C@]12C [SA166, (3S,8S,9S,10R,13R,14S,17R)-10,13-dimethyl-17-((R)-6-methylheptan-2-yl)-2,3,4,7,8,9,10,11,12,13,14,15,16,17-tetradecahydro-1H-cyclopenta[a]phenanthren-3-yl 4-((3-amino-3-methylbutyl)(4-amino-4-methylpentyl)amino)-4-oxobutanoate dihydrochloride] | 99.5 | 99.2 | 33377.3 ± 8879.8 | 76.1 | 0.16 | 75 | 0.14 | 15.6 ± 1.3 |
| CC[C@H](CC[C@@H](C)[C@H]1CC[C@H]2[C@@H]3CC=C4C[C@@H](OC(=O)CCC(=O)N(CCCC(C)(C)N)CCC(C)(C)N)CC[C@]4(C)[C@H]3CC[C@]12C)C(C)C [SA167, (3S,8S,9S,10R,13R,14S,17R)-17-((2R,5R)-5-ethyl-6-methylheptan-2-yl)-10,13-dimethyl-2,3,4,7,8,9,10,11,12,13,14,15,16,17-tetradecahydro-1H-cyclopenta[a]phenanthren-3-yl 4-((3-amino-3-methylbutyl)(4-amino-4-methylpentyl)amino)-4-oxobutanoate dihydrochloride] | 100 | 98.7 | 38742.4 ± 6037.5 | 75.1 | 0.16 | 75 | 0.15 | 14.9 ± 1.4 |
| CC[C@H](CC[C@@H](C)[C@H]1CC[C@H]2[C@@H]3CC=C4C[C@@H](OC(=O)CCC(=O)N(CCC(C)N)CCC(C)N)CC[C@]4(C)[C@H]3CC[C@]12C)C(C)C (stereo partly drawn) [SA168, (3S,8S,9S,10R,13R,14S,17R)-17-((2R,5R)-5-ethyl-6-methylheptan-2-yl)-10,13-dimethyl-2,3,4,7,8,9,10,11,12,13,14,15,16,17-tetradecahydro-1H-cyclopenta[a]phenanthren-3-yl 4-(bis(3-aminobutyl)amino)-4-oxobutanoate dihydrochloride] | 99.3 | 99.3 | 35639.5 ± 6688.9 | 76.1 | 0.15 | 79 | 0.16 | 14.8 ± 0.7 |
| CC(C)CCC[C@@H](C)[C@H]1CC[C@H]2[C@@H]3CC=C4C[C@@H](OC(=O)CCC(=O)N(CCC(C)(C)N)CCC(C)(C)N)CC[C@]4(C)[C@H]3CC[C@]12C [SA169, (3S,8S,9S,10R,13R,14S,17R)-10,13-dimethyl-17-((R)-6-methylheptan-2-yl)-2,3,4,7,8,9,10,11,12,13,14,15,16,17-tetradecahydro-1H-cyclopenta[a]phenanthren-3-yl 4-(bis(3-amino-3-methylbutyl)amino)-4-oxobutanoate dihydrochloride] | 99.2 | 99.4 | 28034.9 ± 4050.3 | 73.0 | 0.14 | 77 | 0.20 | 19.7 ± 1.6 |
| CC[C@H](CC[C@@H](C)[C@H]1CC[C@H]2[C@@H]3CC=C4C[C@@H](OC(=O)CCC(=O)N(CCC(C)(C)N)CCC(C)(C)N)CC[C@]4(C)[C@H]3CC[C@]12C)C(C)C [SA170, (3S,8S,9S,10R,13R,14S,17R)-17-((2R,5R)-5-ethyl-6-methylheptan-2-yl)-10,13-dimethyl-2,3,4,7,8,9,10,11,12,13,14,15,16,17-tetradecahydro-1H-cyclopenta[a]phenanthren-3-yl 4-(bis(3-amino-3-methylbutyl)amino)-4-oxobutanoate dihydrochloride] | 99.2 | 99.6 | 23687.3 ± 3865 | 74.8 | 0.15 | 75 | 0.21 | 19.0 ± 1.7 |
| CC(C)CCC[C@@H](C)[C@H]1CC[C@H]2[C@@H]3CC=C4C[C@@H](SSCCC(=O)N(CCCCNCCC(C)N)CCC(C)N)CC[C@]4(C)[C@H]3CC[C@]12C (stereo partly drawn) [SA171, N-(3-aminobutyl)-N-(4-((3-aminobutyl)amino)butyl)-3-(((3S,8S,9S,10R,13R,14S,17R)-10,13-dimethyl-17-((R)-6-methylheptan-2-yl)-2,3,4,7,8,9,10,11,12,13,14,15,16,17-tetradecahydro-1H-cyclopenta[a]phenanthren-3-yl)disulfaneyl)propanamide trihydrochloride] | 99.4 | 99.2 | 22232.4 ± 9084.1 | 71.3 | 0.11 | 73 | 0.23 | 18.9 ± 1.9 |
| CC(C)CCC[C@@H](C)[C@H]1CC[C@H]2[C@@H]3CC=C4C[C@@H](SSCCC(=O)N(CCCCCCCC(C)N)CCC(C)N)CC[C@]4(C)[C@H]3CC[C@]12C (stereo partly drawn) [SA172, N-(3-aminobutyl)-N-(8-aminononyl)-3-(((3S,8S,9S,10R,13R,14S,17R)-10,13-dimethyl-17-((R)-6-methylheptan-2-yl)-2,3,4,7,8,9,10,11,12,13,14,15,16,17-tetradecahydro-1H-cyclopenta[a]phenanthren-3-yl)disulfaneyl)propanamide dihydrochloride] | 98.3 | 99.4 | 27528.4 ± 6654.4 | 70.3 | 0.13 | 74 | 0.10 | 17.8 ± 1.1 |
| CC(C)CCC[C@@H](C)[C@H]1CC[C@H]2[C@@H]3CC=C4C[C@@H](SSCCC(=O)N(CCC(C)N)CCC(C)N)CC[C@]4(C)[C@H]3CC[C@]12C (stereo partly drawn) [SA173, N,N-bis(3-aminobutyl)-3-(((3S,8S,9S,10R,13R,14S,17R)-10,13-dimethyl-17-((R)-6-methylheptan-2-yl)-2,3,4,7,8,9,10,11,12,13,14,15,16,17-tetradecahydro-1H-cyclopenta[a]phenanthren-3-yl)disulfaneyl)propanamide dihydrochloride] | 100 | 99.5 | 33596.1 ± 6033 | 71.8 | 0.16 | 73 | 0.18 | 13.5 ± 0.8 |
| CC(C)CCC[C@@H](C)[C@H]1CC[C@H]2[C@@H]3CC=C4C[C@@H](SSCCC(=O)N(CCC(C)(C)N)CCC(C)(C)N)CC[C@]4(C)[C@H]3CC[C@]12C [SA174, N,N-bis(3-amino-3-methylbutyl)-3-(((3S,8S,9S,10R,13R,14S,17R)-10,13-dimethyl-17-((R)-6-methylheptan-2-yl)-2,3,4,7,8,9,10,11,12,13,14,15,16,17-tetradecahydro-1H-cyclopenta[a]phenanthren-3-yl)disulfaneyl)propanamide dihydrochloride] | 98.1 | 99.5 | 31280.7 ± 5830.7 | 71.1 | 0.16 | 73 | 0.17 | 14.8 ± 1.4 |

— US20260109732A1, “LIPID AMINES” (ModernaTX, Inc., priority 2021, published 2026)
